According to patent US20170165266A1 (Celgene Corporation, priority 2010, published 2017):
Structures can show the parent of a compound that is named as a salt. One block for each compound: values may come before it.

Assays:
[1] = system: bleomycin induced dermal fibrosis; details: previously shown, Akhmetshina et al. 2009; cited from earlier work
IL-10 [2] = assay: IL-10 production in LPS-stimulated hPBMC (Luminex); assay type: cell-based, human; details: at 10 μM; used as upper constraint for EC50s
Experimental: (§1) 50 ml human buffy coat was aliquoted 25 ml each into two 50 ml conical tubes and 25 ml sterile HBSS was added to each conical tube. The tubes were gently mixed by inverting. Fifteen ml of room temperature Ficoll-Paque Plus (GE Healthcare (location); cat #17-1440-02) was aliquoted into four 50 ml conical tubes. Then 25 ml of the Buffy coat/HBSS mixture was layered gently and slowly on top of the Ficoll. The samples were centrifuged at 450 rpm for 35 minutes. The top layered containing plasma was pipetted off and discarded. The interface containing mononuclear cells was transferred into two 50 ml conical tubes. Both conical tubes were filled to total volume of 50 ml with HBSS and centrifuged at 1200 rpm for 10 minutes. The cells were washed again in HBSS and spun at 1000 rpm for 10 minutes. Cell pellet was resuspended with 20 ml RPMI complete medium (RPMI/5% human sera/1× pen/strep/glut) and counted.
(§2) One hundred μl (2×10^6/ml) of hPBMCs were added to each well of a 96 well flat-bottom plate (final cell count=2×10^5/well) and incubated at 37° C. for 1 hour. […]
(§3) Supernatant samples were analyzed for cytokines in multiplex format according to the manufacturer's instructions (Millipore, Billerica, Mass. 01821) using a Luminex IS100 instrument. […]

[3] = system: bleomycin induced dermal fibrosis; assay: Modified bleomycin induced dermal fibrosis mouse model, regression of established fibrosis; assay type: in vivo, DBA/2 mice; details: 30 mg/kg, PO, QD, p<0.0001
Experimental: Skin fibrosis was induced in 6-week-old DBA mice by local intracutaneous injections of 100 μl of bleomycin dissolved in 0.9% NaCl, at a concentration of 0.5 mg/ml, every other day in defined areas of 1.5 cm2 on the upper back.
Dermal thickness was determined by staining with hematoxylin and eosin and activated fibroblasts by using immunohistochemistry for alpha smooth mucle actin (α-SMA). […] Skin sections were stained with hematoxylin/eosin for better visualization of the tissue structure. Dermal thickness was analyzed with a Nikon Eclipse 80i microscope (Nikon, Badhoevedorp, The Netherlands) by measuring the maximal distance between the epidermal-dermal junction and the dermal-subcutaneous fat junction at 4 different skin sections in each mouse. The evaluation was performed by 2 independent examiners.

NK cell IFN-γ production = assay: NK IgG-induced interferon-gamma (IFN-gamma) assay; assay type: cell-based, human
Experimental: NK cells from healthy donors were isolated from buffy coat blood by negative selection using the RosetteSep NK cell enrichment cocktail (Stem Cell Technologies, Vancouver, BC) prior to Ficoll-Hypaque (Fisher Scientific Co LLC, PA) density gradient centrifugation following the manufacturers' instructions. CD56+ NK cells were isolated to ˜85% purity, as determined by flow cytometry (BD Biosciences, CA). Ninety-six-well flat-bottom plates were coated with 100 μg/mL of human IgG (Sigma) overnight at 4° C. The next day, unbound IgG was washed away with cold 1× PBS. NK cells were then plated in the IgG-coated 96-well plates at 2×10^5 cells per well in 180 μL RPMI-1640 Media and 10 ng/mL of rhIL-2 (R & D Systems, MN) was added. […] Final DMSO concentrations were 0.25%. After 48 hours, the supernatants were harvested and analyzed by ELISA for IFN-γ production. […] The data are presented in two ways, (1) as the absolute amount if IFN-γ produced (pg/mL±SEM) and (2) as the percentage of the amount of IFN-γ produced in the presence of 1 μM pomalidomide.

[4] = system: bleomycin induced dermal fibrosis; assay: Bleomycin induced dermal fibrosis mouse model, prevention of fibrosis; assay type: in vivo, DBA/2 mice; details: 30 mg/kg, PO, QD, p<0.0001
Experimental: Bleomycin was obtained from the pharmacy of the University of Erlangen-Nuremberg and freshly prepared once a week. Skin fibrosis was induced in 6-week-old DBA mice by local intracutaneous injections of 100 μl of bleomycin dissolved in 0.9% NaCl, at a concentration of 0.5 mg/ml, every other day in defined areas of 1.5 cm2 on the upper back.
In this model, a localized dermal fibrosis is induced by intradermal injections with bleomycin every other day for 3 weeks. […] To evaluate potential effects on prevention of fibrosis, treatment was initiated simultaneously with the first bleomycin injection. […]
Dermal thickness was determined by staining with hematoxylin and eosin and activated fibroblasts by using immunohistochemistry for alpha smooth mucle actin (α-SMA). […] Dermal thickness was analyzed with a Nikon Eclipse 80i microscope (Nikon, Badhoevedorp, The Netherlands) by measuring the maximal distance between the epidermal-dermal junction and the dermal-subcutaneous fat junction at 4 different skin sections in each mouse. […]
For quantification of myofibroblasts, skin sections were deparaffinized and incubated with 5% bovine serum albumin for 60 minutes. Cells positive for α-SMA were detected by incubation with monoclonal anti-α-SMA antibodies (clone 1A4; Sigma-Aldrich, Steinheim, Germany) for 2 hours at room temperature followed by incubation with 3% hydrogen peroxide for 10 minutes. […]

TNF-α = TNF-α production in LPS-stimulated hPBMC (Luminex); assay type: cell-based; details: Homo sapiens; LPS 1 ng/ml, 18 hours
Experimental: as §1, §2, §3

MIP-1β = MIP-1β production in LPS-stimulated hPBMC (Luminex); assay type: cell-based; details: Homo sapiens; LPS 1 ng/ml, 18 hours
Experimental: as §1, §2, §3

[5] = system: Rituximab coated lymphoma cells (WSU-DLCL2, Farage, DoHH2, Riva, Raji); assay: ADCC assay: NK cell-mediated ADCC (LDH release); assay type: cell-based, human; details: 0.01 to 10 μM, 48 hours pretreatment, effector:target 10:1
Description: NK cells from healthy donors were isolated from buffy coat blood by negative selection using the RosetteSep NK cell enrichment cocktail (Stem Cell Technologies, Vancouver, BC) prior to Ficoll-Hypaque (Fisher Scientific Co LLC, PA) density gradient centrifugation following the manufacturers' instructions. CD56+ NK cells were isolated to ˜85% purity, as determined by flow cytometry (BD Biosciences, CA). […] Various lymphoma cell lines (GCB-DLBCL: WSU-DLCL2 and Farage; Follicular lymphoma:DoHH2; ABC-DLBCL: Riva; Burkitt's lymphoma [BL]: Raji) were treated with 5 μg/mL rituximab for 30 minutes at 37° C. Unbound rituximab was washed off, target cells (5×103/100 μL/well) were added to the pretreated effector cells (NK cells) at a 10:1 ratio, and the two were co-incubated for 4 hours at 37° C. […] Using an aliquot of supernatant (50 μL), NK cell cytotoxicity against tumor cells was analyzed using a standard lactate dehydrogenease (LDH) release assay to measure ADCC (CytoTox 96 Non-Radioactive Cytoxicity Assay, Promega, WI). Spontaneous release by target cells alone was <15% of the maximum release, as determined with target cells lysed in 1% Triton X-100. […] The percentage of specific lysis was calculated according to the formula: Percentage specific lysis=100×(experimental−effector spontaneous−target spontaneous)/(target maximum−target spontaneous).

IL-5 = IL-5 production in anti-human CD3-stimulated human T cells; assay type: cell-based; details: 48 hours
Experimental: (§4) The test compounds were prepared as stock solutions of 4 mM in DMSO. T cells were isolated from buffy coat by negative selection using the RosetteSep® T Cell Enrichment Cocktail according to manufacturer's procedures. All 96-well plates were pre-coated with 3 μg/mL anti-human CD3 antibody in 100 μL 1× PBS for 4 hours at 37° C. The plates were washed 3 times with RPMI-1640 Complete Media prior to the T cell assay. The T cells were then plated in anti-CD3-pre-coated plates at a density of 2.5×10^5 cells/well in 180 μL RPMI-1640 Complete Media. […] The final DMSO concentrations were 0.25%. The plates were incubated for 48 hours at 37° C., 5% CO2. After 48 hours, the supernatants were harvested and tested by a multiplex cytometric bead array (CBA) assay for the following cytokines/chemokines: IL-2, IL-3, IL-5, IL-10, IL-13, IL-15, IL-17A, GM-CSF, G-CSF, IFN-γ, TNF-α, and RANTES. The CBA plates were analyzed on the Luminex IS100 instrument. Data from each donor was graphed using GraphPad Prism 5.0 software and expressed as mean pg/mL±SEM and % of DMSO control±SEM.

IgG production = IgG production in B cell differentiation assay (ELISA); assay type: cell-based; details: Homo sapiens
Experimental: (§5) Step 1—B cell Activation—day 0 through day 4: Prepare fresh B cell cocktail by adding 50 μg/mL of human transferrin to B cell media. (Iscoves +10% PFBS, 1% P/S, and 5 μg/mL human insulin). Filter required volume of media needed for experiment through a […] filter. Add B cell differentiation cocktail (final concentration): recombinant human IL-2 (20 U/mL), IL-10 (50 ng/mL), IL-15 (10 ng/mL), CD40 Ligand/TNFSFS/histidine-tagged (50 ng/mL), polyHistidine mouse IgG1 antibody (5 μg/mL), and ODN 2006-Human TLR9 ligand (10 μg/mL) to cells. Five milliliters (1×10^5/ml) of CD19+ B cell were added to each well of a 6 well flat-bottom plate (final cell count=5×10^5/well). Five μL (1×)±compound/DMSO was added to each test well (0.1% final DMSO) and incubated at 37° C. for 4 days.
(§6) Step 2—Plasmablast Generation—day 4 through day 7: Cells were harvested and counted on the cell counter; an aliquot was removed for flow analysis, the remaining cells were washed with PBS. […]
(§7) On day 7, cells were harvested and counted on the cell counter. […]
(§8) Supernatants (from section 8.4.3) were harvested and analyzed by ELISA for IgG and IgM production (ZeptoMetrix Corp. Buffalo, N.Y.).
(§9) The data was graphed using GraphPad Prism 5.0 software. […] The results for test compounds in the Ig assays were expressed as the percentage inhibition relative to control DMSO values.

[6] = system: anti-CD3-stimulated human T cells; assay: Cytokine and chemokine production in anti-human CD3-stimulated human T cells (Luminex); assay type: cell-based; details: 48 hours
Experimental: as §4

IgM production = IgM production in B cell differentiation assay (ELISA); assay type: cell-based; details: Homo sapiens
Experimental: as §5, §6, §7, §8, §9

IL-10 [7] = assay: IL-10 production in anti-human CD3-stimulated human T cells; assay type: cell-based
Experimental: as §4

IL-8 = IL-8 production in LPS-stimulated hPBMC (Luminex); assay type: cell-based; details: Homo sapiens; LPS 1 ng/ml, 18 hours
Experimental: as §1, §2, §3

IL-1β = IL-1β production in LPS-stimulated hPBMC (Luminex); assay type: cell-based; details: Homo sapiens; LPS 1 ng/ml, 18 hours
Experimental: as §1, §2, §3

Structure (SMILES): Cc1ccc(NC(=O)c2ccc(CN3CCN(C)CC3)cc2)cc1Nc1nccc(-c2cccnc2)n1 [Imatinib mesylate]
- anti-fibrotic effects in bleomycin induced dermal fibrosis [1]: potent anti-fibrotic effects

Structure (SMILES): Nc1cccc2c1C(=O)N(C1CCC(=O)NC1=O)C2=O (stereo not drawn) [pomalidomide]
- average IL-10 enhancement (IL-10 [2]): 246.9%

- EC50 (NK cell IFN-γ production; Homo sapiens, immobilized IgG and rhIL-2, 48 hours, maximal = IFN-γ produced with 1 μM pomalidomide, read-out: EC50, half-maximal IFN-γ production): 0.0015 µM
- IC50 (TNF-α): 0.034 µM
- IC50 (MIP-1β): > 10 µM
- IC50 (IgG production; SLE (n = 3)): 0.046 µM
- IC50 (IgM production; SLE (n = 3)): 0.03 µM
- IC50 (IL-8): > 10 µM
- IC50 (IL-1β): 0.054 µM
Structure (SMILES): Cc1nc2cccc(N)c2c(=O)n1C1CCC(=O)NC1=O (stereo not drawn) [test compound, 3-(5-amino-2-methyl-4-oxoquinazolin-3(4H)-yl)piperidine-2,6-dione]
- reduction of bleomycin induced dermal thickening [3]: 22±0.28%
- NK cell IFN-γ production (NK cell IFN-γ production; immobilized IgG and IL-2 stimulation): enhanced
- prevention of dermal thickening ([4]; three weeks): approximately 22±0.49%
- reduction of number of α-SMA+ myofibroblasts in lesional skin [4]: 30±0.23%
- NK cell-mediated ADCC [5]: induced dose-dependent NK cell-mediated ADCC in all cell lines
- increase of IL-5 production (IL-5; 0.01 μM): 3 fold
- increase of IL-5 production (IL-5; 0.1 μM): 4 fold
- IC50 (IgG production; Normal (n = 3)): 0.061 µM
- IL-2, IL-3, IL-5, IL-10, IL-13, GM-CSF, IFN-γ, RANTES, and TNF-α production in stimulated human T cells [6]: enhanced
- IC50 (IgM production; Normal (n = 3)): 0.023 µM
- IL-10 production (IL-10 [7]; at higher concentrations): inhibited enhancement of IL-10 production
- IL-10 production (IL-10 [7]; at lower concentrations): enhanced IL-10 production
